The values that follow come from US8829030B2 (priority 2002, dated 2014).

Read-outs that look alike come from different tables or passages of the source.

This assay has as its target recombinant HCV RNA-dependent RNA polymerase (NS5B protein) (Hepatitis C virus genotype 1b, UniProt P26663). Briefly: biochemical. On the set-up: species or system HCV-Bk strain.

Sequence of recombinant HCV RNA-dependent RNA polymerase (NS5B protein) (P26663 2420-3010 limits assumed): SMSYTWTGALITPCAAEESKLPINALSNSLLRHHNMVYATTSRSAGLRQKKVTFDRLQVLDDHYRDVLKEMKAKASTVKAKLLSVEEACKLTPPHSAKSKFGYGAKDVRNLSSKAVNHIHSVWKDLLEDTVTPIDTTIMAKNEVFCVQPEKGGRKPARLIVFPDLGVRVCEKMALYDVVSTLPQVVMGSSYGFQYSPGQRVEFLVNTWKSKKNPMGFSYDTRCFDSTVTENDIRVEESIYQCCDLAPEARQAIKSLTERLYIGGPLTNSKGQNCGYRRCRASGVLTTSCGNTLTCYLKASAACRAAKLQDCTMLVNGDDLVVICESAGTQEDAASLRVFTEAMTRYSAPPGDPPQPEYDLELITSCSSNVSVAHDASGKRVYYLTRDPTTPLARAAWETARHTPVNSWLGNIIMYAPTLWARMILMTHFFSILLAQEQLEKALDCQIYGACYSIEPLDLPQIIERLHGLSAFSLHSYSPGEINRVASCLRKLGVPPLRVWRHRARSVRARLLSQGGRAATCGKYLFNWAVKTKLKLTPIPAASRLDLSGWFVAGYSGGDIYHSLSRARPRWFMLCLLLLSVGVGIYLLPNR

In general, IC50 refers to the concentration that gives 50% inhibition. Take `CC1CCC(C(=O)N(c2cc(-c3ccccc3)sc2C(=O)O)C(C)C)OC1` (stereo not drawn) [Compound 29, 3-[Isopropyl-(cis-5-methyl-tetrahydro-pyran-2-carbonyl)-amino]-5-phenyl-thiophene-2-carboxylic acid]: the IC50 is 5 to 20 µM. Take `CN(C)N(C(=O)c1ccc(Cl)cc1Cl)c1cc(-c2ccccc2)sc1C(=O)O` [Compound 72, 3-[n-(2,4-dichloro-benzoyl)-N′,N′-dimethyl-hydrazino]-5-phenyl-thiophene-2-carboxylic acid]: the 50% inhibitory concentration (IC50) was under 5 µM. On the same count and under the same terms, the value for `CO[C@H]1CC[C@H](N(c2cc(-c3ccccc3)sc2C(=O)O)C(=O)[C@H]2CC[C@H](C)CC2)CC1` [Compound 46, 3-[(4-methoxy-cyclohexyl)-(4-methyl-cyclohexanecarbonyl)-amino]-5-phenyl-thiophene-2-carboxylic acid] was under 5 µM; that for `CC1CCC(C(=O)N(c2cc(-c3ccccc3)sc2C(=O)O)C2CCOCC2)C(O)C1` (stereo not shown) [Compound 31, 3-[(2-hydroxy-4-methyl-cyclohexanecarbonyl)-(tetrahydro-pyran-4-yl)-amino]-5-phenyl-thiophene-2-carboxylic acid] was under 5 µM. Turning to `CNC(=O)N1CCC(N(C(=O)C2CCC(C)CC2)c2cc(-c3ccccc3)sc2C(=O)O)CC1` (stereo not shown) [Compound 71, 3-[(1-methylcarbamoyl-piperidin-4-yl)-(4-methyl-cyclohexanecarbonyl)-amino]-5-phenyl-thiophene-2-carboxylic acid], the IC50 was under 5 µM.

With `CC(C)N(C(=O)[C@H]1CC[C@H](C)CO1)c1cc(-c2ccccc2)sc1C(=O)O` (relative stereo) [Compound 27, 3-[Isopropyl-(trans-5-methyl-tetrahydro-pyran-2-carbonyl)-amino]-5-phenyl-thiophene-2-carboxylic acid], the IC50 is under 5 µM. Same read-out and setting: for `CC1COC(C(=O)N(c2cc(-c3ccccc3)sc2C(=O)O)C(C)C)OC1` (stereo not shown) [Compound 22, 3-[isopropyl-(5-methyl-[1,3]dioxane-2-carbonyl)-amino]-5-phenyl-thiophene-2-carboxylic acid] the value was 5 to 20 µM; for `CON=C1CCC(N(C(=O)C2CCC(C)CC2)c2cc(-c3ccccc3)sc2C(=O)O)CC1` (stereo not shown) [Compound 25, 3-[(4-methoxyimino-cyclohexyl)-(4-methyl-cyclohexanecarbonyl)-amino]-5-phenyl-thiophene-2-carboxylic acid], under 5 µM; for `CC1CCC(C(=O)N(c2cc(-c3ccccc3)sc2C(=O)O)C2CCCNCC2)CC1` (stereo not shown) [Compound 6, 3-[azepan-4-yl-(4-methyl-cyclohexanecarbonyl)-amino]-5-phenyl-thiophene-2-carboxylic acid], under 5 µM. With `O=C(O)c1sc(-c2ccccc2)cc1N(CC1OCCO1)C(=O)c1ccc(Cl)cc1Cl` [Compound 7, 3-[(2,4-dichloro-benzoyl)-[1,3]dioxolan-2-ylmethyl-amino]-5-phenyl-thiophene-2-carboxylic acid], the IC50 is under 5 µM. Turning to `C[C@H]1CC[C@H](C(=O)N(c2cc(-c3ccccc3)sc2C(=O)O)[C@H]2CC[C@H](O)C2)CC1` [Compound 90, 3-[(3-hydroxy-cyclopentyl)-(4-methyl-cyclohexanecarbonyl)-amino]-5-phenyl-thiophe-2-carboxylic acid], the IC50 is under 5 µM. Same read-out and setting: for `CC1CCC(C(=O)N(CC2CCCNC2)c2cc(-c3ccccc3)sc2C(=O)O)CC1` (stereo not shown) [Compound 1, 3-{[(2-carboxy-5-phenyl-thiophen-3-yl)-(4-methyl-cyclohexanecarbonyl)-amino]-methyl}-piperidinium; trifluoro-acetate] the value was under 5 µM; for `CC1CCC(C(=O)N(CC2OCCO2)c2cc(-c3ccccc3)sc2C(=O)O)CC1` (stereo not shown) [Compound 8, 3-[[1,3]dioxolan-2-ylmethyl-(4-methyl-cyclohexanecarbonyl)-amino]-5-phenyl-thiophene-2-carboxylic acid], under 5 µM. The same measure, in the same setting: for `CC1CCC(C(=O)N(c2cc(-c3ccccc3)sc2C(=O)O)C2CCN(C=O)CC2)CC1` (stereo not shown) [Compound 63, 3-[(1-formyl-piperidin-4-yl)-(4-methyl-cyclohexanecarbonyl)-amino]-5-phenyl-thiophene-2-carboxylic acid] the value was under 5 µM. As to `CC1CCC(C(=O)N(c2cc(-c3ccccc3)sc2C(=O)O)C2CCN(C)C(=O)C2)CC1` (stereo not shown) [Compound 75, 3-[(4-methyl-cyclohexanecarbonyl)-(1-methyl-2-oxo-piperidin-4-yl)-amino]-5-phenyl-thiophene-2-carboxylic acid], the IC50 (read-out: Activity (polymerase activity, IC50)) was under 5 µM. With `C[C@H]1CC[C@H](C(=O)N(c2cc(-c3ccc(F)cc3)sc2C(=O)O)[C@H]2CC[C@H](O)CC2)CC1` [Compound 50, 5-(4-fluoro-phenyl)-3-[(4-hydroxy-cyclohexyl)-(4-methyl-cyclohexanecarbonyl)-amino]-thiophene-2-carboxylic acid], the IC50 was under 5 µM.
